# In ChEMBL document CHEMBL1201862, “PubChem BioAssay data set” (2004):
# Activity calls are given as the source filed them.
# Legend:
# [1] = biological target: T1, Apoptotic protease-activating factor 1 (Homo sapiens, UniProt O14727); type: functional
# T1 sequence (O14727 whole entry): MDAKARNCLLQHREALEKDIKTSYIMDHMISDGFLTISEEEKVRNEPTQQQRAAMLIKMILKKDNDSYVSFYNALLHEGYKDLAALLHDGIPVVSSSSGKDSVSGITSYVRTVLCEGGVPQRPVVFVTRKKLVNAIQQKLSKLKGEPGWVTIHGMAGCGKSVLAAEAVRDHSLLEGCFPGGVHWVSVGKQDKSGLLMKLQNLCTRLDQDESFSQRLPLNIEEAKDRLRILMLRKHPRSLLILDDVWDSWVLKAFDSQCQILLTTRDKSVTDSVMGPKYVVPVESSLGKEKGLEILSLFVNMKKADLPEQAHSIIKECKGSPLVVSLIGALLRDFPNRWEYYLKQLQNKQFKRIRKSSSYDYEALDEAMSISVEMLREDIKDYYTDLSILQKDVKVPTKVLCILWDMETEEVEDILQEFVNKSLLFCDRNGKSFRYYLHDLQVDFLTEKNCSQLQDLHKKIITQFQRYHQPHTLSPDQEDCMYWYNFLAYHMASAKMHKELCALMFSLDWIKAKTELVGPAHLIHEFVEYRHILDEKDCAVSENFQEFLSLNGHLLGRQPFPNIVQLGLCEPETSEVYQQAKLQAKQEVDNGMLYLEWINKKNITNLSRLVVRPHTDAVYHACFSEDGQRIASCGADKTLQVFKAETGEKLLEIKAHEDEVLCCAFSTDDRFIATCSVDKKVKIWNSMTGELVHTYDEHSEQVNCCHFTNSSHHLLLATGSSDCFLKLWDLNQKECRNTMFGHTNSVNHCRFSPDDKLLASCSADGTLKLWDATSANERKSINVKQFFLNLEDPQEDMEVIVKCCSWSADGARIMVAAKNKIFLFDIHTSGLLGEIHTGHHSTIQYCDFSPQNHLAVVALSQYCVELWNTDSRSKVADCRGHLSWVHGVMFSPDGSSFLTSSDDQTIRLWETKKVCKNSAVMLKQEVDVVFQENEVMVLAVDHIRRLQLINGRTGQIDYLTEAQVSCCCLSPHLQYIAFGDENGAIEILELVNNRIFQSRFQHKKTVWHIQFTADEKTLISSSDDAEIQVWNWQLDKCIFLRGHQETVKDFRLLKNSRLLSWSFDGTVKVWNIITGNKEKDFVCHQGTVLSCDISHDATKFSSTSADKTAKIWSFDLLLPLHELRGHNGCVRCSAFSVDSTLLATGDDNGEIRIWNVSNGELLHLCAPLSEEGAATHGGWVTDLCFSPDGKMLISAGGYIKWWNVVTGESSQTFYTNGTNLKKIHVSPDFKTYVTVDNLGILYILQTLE
# Beta-galactosidase = Beta-galactosidase (Escherichia coli, UniProt Q8VNN2); assay: detection-enzyme interference by beta-gal modulators – biochemical, E. coli enzyme, set 3, artefact control for CCR6 antagonist project, dose response (AID 504712); type: functional
# Chain of Beta-galactosidase (Q8VNN2 whole entry): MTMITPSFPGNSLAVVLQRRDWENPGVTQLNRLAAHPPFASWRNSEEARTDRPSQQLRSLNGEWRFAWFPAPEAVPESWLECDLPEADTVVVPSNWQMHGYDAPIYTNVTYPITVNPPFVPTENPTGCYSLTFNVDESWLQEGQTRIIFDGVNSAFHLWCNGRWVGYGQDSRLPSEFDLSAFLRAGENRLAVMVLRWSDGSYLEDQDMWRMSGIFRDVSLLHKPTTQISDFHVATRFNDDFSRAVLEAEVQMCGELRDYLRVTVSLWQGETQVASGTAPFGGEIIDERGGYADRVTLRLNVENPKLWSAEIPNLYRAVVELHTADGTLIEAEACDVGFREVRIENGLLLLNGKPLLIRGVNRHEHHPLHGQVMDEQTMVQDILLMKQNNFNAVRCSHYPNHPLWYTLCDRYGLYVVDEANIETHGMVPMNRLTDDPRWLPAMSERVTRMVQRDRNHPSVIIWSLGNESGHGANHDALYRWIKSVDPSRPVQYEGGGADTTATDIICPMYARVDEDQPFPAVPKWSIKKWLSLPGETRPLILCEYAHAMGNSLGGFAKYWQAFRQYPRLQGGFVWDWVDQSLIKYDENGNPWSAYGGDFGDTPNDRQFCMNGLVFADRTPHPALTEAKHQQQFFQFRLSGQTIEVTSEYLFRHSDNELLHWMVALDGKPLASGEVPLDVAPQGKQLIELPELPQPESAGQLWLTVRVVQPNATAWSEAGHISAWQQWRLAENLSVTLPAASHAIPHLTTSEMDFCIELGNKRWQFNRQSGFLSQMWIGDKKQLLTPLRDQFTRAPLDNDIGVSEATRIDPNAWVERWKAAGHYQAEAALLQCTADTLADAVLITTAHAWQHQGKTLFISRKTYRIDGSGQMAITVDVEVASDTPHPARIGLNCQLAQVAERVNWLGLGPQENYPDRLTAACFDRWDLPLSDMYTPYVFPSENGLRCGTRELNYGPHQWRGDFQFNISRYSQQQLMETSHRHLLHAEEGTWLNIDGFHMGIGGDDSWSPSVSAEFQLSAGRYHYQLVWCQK
# [2] = biological target: 1-phosphatidylinositol 4,5-bisphosphate phosphodiesterase beta-3 (Homo sapiens, UniProt Q01970); assay: Fluorescence-based biochemical high throughput dose response assay to identify inhibitors of phospholipase C isozymes (PLC-B3).
# Chain of 1-phosphatidylinositol 4,5-bisphosphate phosphodiesterase beta-3 (Q01970 whole entry): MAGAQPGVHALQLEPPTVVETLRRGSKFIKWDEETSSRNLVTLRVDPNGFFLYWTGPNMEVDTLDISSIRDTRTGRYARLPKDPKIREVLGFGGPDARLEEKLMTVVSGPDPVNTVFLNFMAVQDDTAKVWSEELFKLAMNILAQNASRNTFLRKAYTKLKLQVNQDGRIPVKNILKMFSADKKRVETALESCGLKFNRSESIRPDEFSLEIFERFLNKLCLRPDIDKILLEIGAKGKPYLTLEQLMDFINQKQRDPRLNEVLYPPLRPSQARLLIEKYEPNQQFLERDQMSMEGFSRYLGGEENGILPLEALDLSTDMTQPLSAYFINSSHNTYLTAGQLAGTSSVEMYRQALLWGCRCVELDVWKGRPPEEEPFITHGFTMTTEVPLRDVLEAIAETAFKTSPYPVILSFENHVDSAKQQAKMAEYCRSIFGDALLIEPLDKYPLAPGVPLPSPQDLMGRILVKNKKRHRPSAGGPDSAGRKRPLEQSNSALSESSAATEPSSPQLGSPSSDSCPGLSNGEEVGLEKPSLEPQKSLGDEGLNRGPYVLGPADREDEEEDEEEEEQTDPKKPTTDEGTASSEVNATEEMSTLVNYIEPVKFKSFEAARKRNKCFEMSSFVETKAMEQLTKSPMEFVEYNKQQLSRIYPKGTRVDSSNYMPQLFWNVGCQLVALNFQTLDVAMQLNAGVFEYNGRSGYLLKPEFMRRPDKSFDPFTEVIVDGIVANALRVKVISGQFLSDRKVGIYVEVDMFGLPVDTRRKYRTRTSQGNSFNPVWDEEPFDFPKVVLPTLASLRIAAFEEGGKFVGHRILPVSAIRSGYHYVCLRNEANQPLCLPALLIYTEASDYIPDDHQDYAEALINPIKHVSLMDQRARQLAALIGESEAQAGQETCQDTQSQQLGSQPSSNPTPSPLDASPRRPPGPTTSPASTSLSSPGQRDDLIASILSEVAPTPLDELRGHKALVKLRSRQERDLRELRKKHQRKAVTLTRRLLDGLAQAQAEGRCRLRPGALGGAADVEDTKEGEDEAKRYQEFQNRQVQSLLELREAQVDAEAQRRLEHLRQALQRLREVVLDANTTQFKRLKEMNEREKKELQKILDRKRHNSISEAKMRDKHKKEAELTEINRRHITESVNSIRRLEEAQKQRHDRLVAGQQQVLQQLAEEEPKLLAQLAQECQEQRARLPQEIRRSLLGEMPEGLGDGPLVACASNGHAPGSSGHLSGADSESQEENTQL
# [3] = viability loss in THP-1 monocytes – THP-1 cells, cytotoxicity control for Vif-APOBEC3G degradation inhibitor project, dose response (AID 1117359); type: functional; conditions: THP-1
# [4] = biological target: 1-phosphatidylinositol 4,5-bisphosphate phosphodiesterase gamma-1 (Homo sapiens, UniProt P19174); assay: Counterscreen for inhibitors of phospholipase C isozymes (PLC-B3): Fluorescence-based biochemical high throughput dose response assay to identify inhibitors of phospholipase C isozymes (PLC-gamma1).
# Chain of 1-phosphatidylinositol 4,5-bisphosphate phosphodiesterase gamma-1 (P19174 whole entry): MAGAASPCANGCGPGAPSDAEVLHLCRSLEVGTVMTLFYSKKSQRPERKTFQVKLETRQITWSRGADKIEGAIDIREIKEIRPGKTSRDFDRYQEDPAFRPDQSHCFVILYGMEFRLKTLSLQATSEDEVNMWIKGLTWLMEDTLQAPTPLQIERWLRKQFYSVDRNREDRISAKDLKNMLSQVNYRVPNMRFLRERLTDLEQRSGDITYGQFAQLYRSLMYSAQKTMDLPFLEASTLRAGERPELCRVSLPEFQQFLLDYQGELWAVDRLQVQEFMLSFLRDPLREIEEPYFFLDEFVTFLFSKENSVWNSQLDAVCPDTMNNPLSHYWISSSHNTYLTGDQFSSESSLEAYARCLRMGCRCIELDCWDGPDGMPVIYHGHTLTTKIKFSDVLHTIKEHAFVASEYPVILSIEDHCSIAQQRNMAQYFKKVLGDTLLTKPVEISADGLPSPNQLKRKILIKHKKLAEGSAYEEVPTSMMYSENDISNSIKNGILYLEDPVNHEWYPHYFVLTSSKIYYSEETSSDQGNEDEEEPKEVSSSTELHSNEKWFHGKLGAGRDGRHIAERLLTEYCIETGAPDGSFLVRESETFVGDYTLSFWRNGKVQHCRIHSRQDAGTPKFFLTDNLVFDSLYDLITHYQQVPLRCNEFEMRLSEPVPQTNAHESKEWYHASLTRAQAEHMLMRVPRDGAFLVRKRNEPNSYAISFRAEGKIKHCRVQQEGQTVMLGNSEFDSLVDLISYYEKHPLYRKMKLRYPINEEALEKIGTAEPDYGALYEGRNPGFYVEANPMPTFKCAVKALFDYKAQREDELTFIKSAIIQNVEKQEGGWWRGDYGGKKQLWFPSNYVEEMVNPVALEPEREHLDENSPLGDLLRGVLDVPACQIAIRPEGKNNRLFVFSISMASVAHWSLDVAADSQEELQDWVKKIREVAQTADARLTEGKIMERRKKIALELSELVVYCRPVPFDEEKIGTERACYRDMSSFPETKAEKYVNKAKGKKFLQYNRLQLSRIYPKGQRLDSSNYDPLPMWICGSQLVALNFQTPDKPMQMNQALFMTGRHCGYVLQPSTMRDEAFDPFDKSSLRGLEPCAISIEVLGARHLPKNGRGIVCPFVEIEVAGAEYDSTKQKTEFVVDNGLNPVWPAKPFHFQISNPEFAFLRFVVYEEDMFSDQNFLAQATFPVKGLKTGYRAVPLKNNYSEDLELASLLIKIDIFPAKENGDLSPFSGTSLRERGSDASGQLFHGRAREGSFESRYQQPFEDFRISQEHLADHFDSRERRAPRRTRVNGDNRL
# [5] = biological target: C-C chemokine receptor type 6 (Homo sapiens, UniProt P51684); assay: antagonism of CCR6 beta-arrestin recruitment – cell-based, luminescent beta-arrestin readout, dose response (AID 504728); type: functional
# [6] = biological target: Polyadenylate-binding protein 1 (Homo sapiens, UniProt P11940); assay: PABP inhibition in translation initiation, SAR follow-up (AID 435018); type: functional
# Chain of Polyadenylate-binding protein 1 (P11940 whole entry): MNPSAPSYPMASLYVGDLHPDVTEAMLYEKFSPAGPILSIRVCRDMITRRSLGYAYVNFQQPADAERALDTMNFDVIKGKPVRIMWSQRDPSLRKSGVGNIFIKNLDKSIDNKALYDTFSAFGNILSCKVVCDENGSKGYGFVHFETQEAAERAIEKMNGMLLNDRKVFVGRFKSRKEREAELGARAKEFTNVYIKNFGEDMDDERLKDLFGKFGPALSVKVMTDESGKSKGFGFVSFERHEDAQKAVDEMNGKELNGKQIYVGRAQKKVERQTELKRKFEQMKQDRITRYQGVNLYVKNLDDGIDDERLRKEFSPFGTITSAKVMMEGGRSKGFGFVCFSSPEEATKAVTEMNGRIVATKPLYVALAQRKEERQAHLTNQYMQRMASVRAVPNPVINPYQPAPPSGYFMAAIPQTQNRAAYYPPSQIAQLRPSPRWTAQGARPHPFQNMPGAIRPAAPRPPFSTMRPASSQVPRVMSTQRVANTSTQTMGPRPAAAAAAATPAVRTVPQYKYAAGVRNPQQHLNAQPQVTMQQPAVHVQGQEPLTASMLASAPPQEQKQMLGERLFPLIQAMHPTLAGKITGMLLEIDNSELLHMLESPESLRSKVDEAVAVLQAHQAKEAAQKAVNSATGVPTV
# [7] = biological target: Eukaryotic translation initiation factor 4H (Homo sapiens, UniProt Q15056); assay: inhibitors of translation initiation factor eIF4H – SAR follow-up (AID 435011); type: functional
# [8] = M. tuberculosis H37Rv growth inhibitors, H37Rv strain (AID 1626); type: functional
# [9] = biological target: Envelope glycoprotein gp160 (Human immunodeficiency virus 1, UniProt Q6QLK5); assay: cell-free HIV fusion peptide-binding blockers – biochemical, uHTS, fluorescence dequenching, […] (AID 1986)
# [10] = Luminescence Cell-Based Dose Retest to Confirm Inhibitors of Cancer Stem Cells. [Related pubchem assays (depositor defined):AID2717, AID2721]; type: functional; conditions: Homo sapiens
# INS1 = assay: INS-1E survival protection against cytokine death – cell-based, luminescence, retest, dose response (AID 449756); type: functional; conditions: Rattus norvegicus;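 note: cell death triggered by IL-1 beta plus TNF-alpha plus IFN-gamma mixture; protective hits raise ATP signal compared with cytokine alone wells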
# [11] = biological target: Intestinal-type alkaline phosphatase (Homo sapiens, UniProt P09923); assay: Dose Response confirmation of uHTS hits from a small molecule inhibitors of human intestinal alkaline phosphatase via a luminescent assay. [Related pubchem assays (depositor defined):AID2544, AID2574]; type: functional
# Paired box protein Pax-8 = Paired box protein Pax-8 (Homo sapiens, UniProt Q06710); assay: PAX8 transcriptional activity inhibition in RMG-I – RMG-I cells, luciferase, cherry-pick, dose response (AID 687027); type: functional, cell-based;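 note: luciferase reporter driven by Pax8 target thyroperoxidase promoter measured by SteadyGlo luminescence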
# Insulin-degrading enzyme [12] = biological target: T2, Insulin-degrading enzyme (Homo sapiens, UniProt P14735); assay: cellular IDE activation of Abeta substrate cleavage – fluorescence polarization, HEK cells, dose response (AID 588439); type: functional, cell-based
# T2 sequence (P14735 whole entry): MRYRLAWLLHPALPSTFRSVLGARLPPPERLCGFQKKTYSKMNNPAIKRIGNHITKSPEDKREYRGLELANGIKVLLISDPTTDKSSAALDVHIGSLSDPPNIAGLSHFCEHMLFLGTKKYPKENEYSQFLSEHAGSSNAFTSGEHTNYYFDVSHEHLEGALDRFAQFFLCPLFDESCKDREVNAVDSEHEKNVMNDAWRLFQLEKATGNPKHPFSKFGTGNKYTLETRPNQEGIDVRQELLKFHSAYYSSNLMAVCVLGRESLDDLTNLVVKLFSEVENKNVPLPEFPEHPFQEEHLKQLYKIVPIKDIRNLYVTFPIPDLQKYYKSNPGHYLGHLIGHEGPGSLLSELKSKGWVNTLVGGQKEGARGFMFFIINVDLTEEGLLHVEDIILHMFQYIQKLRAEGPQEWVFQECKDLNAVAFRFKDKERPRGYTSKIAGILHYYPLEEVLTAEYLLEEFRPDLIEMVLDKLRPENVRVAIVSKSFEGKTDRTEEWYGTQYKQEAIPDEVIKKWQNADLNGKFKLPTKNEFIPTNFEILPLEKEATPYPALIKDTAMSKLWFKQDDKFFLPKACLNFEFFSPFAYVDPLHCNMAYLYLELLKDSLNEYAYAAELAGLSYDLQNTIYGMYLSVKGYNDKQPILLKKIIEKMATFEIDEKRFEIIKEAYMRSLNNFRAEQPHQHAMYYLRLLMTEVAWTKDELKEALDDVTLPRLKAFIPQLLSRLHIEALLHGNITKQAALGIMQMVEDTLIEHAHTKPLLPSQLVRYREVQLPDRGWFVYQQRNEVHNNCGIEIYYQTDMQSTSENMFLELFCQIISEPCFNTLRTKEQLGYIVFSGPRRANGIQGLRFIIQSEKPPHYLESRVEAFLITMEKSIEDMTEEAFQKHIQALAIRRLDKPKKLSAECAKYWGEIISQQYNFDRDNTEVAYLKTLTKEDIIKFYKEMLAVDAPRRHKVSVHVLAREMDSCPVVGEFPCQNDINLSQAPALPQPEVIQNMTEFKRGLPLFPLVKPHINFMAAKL
# [13] = biological target: Cystic fibrosis transmembrane conductance regulator/Golgi-associated PDZ and coiled-coil motif-containing protein (Homo sapiens, UniProt P13569+Q9HD26); assay: potency against CAL PDZ-peptide interaction – biochemical, fluorescence polarization, Cerulean-tagged CAL PDZ, cherry-picks, dose response (AID 504773)
# [14] = biological target: Glutathione-S-transferase (Schistosoma japonicum, UniProt Q26513); assay: GST-antibody interaction or FRET quenching – biochemical, TR-FRET, artefact control for Vif-APOBEC3G degradation inhibitor project, dose response (AID 1117362); type: functional
# HEK293 [15] = assay: optical interference in Abeta FP readout, dose response, artefact control for IDE activator project, biochemical, fluorescence polarization (AID 588442); type: functional, cell-based; conditions: Homo sapiens
# Insulin-degrading enzyme [16] = biological target: T2, Insulin-degrading enzyme; assay: recombinant IDE activation, cell-free – biochemical, fluorescence polarization, counter-screen for IDE activator project, dose response (AID 588681)
# ORF 73 = ORF 73 (Human herpesvirus 8, UniProt O40947); assay: KSHV LANA DNA-binding disruption – biochemical, fluorescence polarization, cherry-picked samples, dose response (AID 504725); set-up: species or system Human gammaherpesvirus 8;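 note: fluorescence polarization of a labeled DNA duplex reporting LANA DNA binding; potency is for inhibitors that block LANA binding to the DNA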
# HeLa = assay: viability loss in HeLa cells – cell-based, 24 h, cherry-picked samples, cytotoxicity control, dose response (AID 504726); type: functional; conditions: Homo sapiens;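 note: potency for cytotoxicity as loss of luminescence signal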
# HEK293 [17] = assay: membrane integrity loss in HEK cells – cell-based, fluorescence, cytotoxicity control for IDE activator project, dose response (AID 588440); type: functional; conditions: Homo sapiens;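 note: cytotoxicity by LDH release measuring loss of membrane integrity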
# [18] = biological target: T3, Dual specificity protein phosphatase 3 (Homo sapiens, UniProt P51452); assay: SAR VHR1 Fluorescent Assay for In Vitro dose response studies. [Related pubchem assays (depositor defined):AID1654, AID1661, AID1878, AID1992, AID2004, AID2070, AID2085]; type: functional
# T3 sequence (P51452 whole entry): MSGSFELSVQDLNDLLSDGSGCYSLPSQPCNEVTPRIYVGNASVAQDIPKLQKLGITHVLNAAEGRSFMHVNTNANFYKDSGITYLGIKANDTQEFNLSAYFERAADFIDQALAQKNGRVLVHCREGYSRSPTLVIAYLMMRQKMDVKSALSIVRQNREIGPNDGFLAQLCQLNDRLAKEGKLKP
# [19] = biological target: T3, Dual specificity protein phosphatase 3; assay: MOA VHR1 Fluorescent secondary assay for identification of redox-state modulating compounds. [Related pubchem assays (depositor defined):AID1654, AID1661, AID1878, AID1957]
# [20] = biological target: T4, Tyrosine-protein phosphatase non-receptor type 7 (Homo sapiens, UniProt P35236); type: functional
# T4 sequence (P35236 whole entry): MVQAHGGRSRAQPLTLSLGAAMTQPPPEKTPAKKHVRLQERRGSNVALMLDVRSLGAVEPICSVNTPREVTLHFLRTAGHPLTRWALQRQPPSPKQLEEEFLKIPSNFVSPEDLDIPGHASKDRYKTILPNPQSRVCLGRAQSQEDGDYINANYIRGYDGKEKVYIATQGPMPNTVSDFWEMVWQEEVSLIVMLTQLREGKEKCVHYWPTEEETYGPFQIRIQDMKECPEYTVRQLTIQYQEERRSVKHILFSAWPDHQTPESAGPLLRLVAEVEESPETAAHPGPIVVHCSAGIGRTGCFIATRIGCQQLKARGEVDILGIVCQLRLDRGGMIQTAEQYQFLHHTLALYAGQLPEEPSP
# [21] = biological target: T5, Dual specificity protein phosphatase 6 (Rattus norvegicus, UniProt Q64346); type: functional
# T5 sequence (Q64346 whole entry): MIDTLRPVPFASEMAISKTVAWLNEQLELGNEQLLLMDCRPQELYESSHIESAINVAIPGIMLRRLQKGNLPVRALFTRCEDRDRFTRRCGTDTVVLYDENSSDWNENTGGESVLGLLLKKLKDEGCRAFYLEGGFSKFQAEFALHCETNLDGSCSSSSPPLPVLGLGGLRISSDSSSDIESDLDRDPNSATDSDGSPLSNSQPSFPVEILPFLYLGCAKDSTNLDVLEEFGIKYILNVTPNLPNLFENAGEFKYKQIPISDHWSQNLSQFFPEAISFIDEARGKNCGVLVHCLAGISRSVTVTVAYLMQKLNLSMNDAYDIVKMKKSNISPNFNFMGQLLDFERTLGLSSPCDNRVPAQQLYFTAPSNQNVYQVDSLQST
# [22] = biological target: T4, Tyrosine-protein phosphatase non-receptor type 7; assay: redox-active compounds inhibiting HePTP phosphatase – biochemical, fluorescence, mechanism study (AID 2068); type: functional
# [23] = biological target: Glyceraldehyde-3-phosphate dehydrogenase (Homo sapiens, UniProt P04406)
# Chain of Glyceraldehyde-3-phosphate dehydrogenase (P04406 whole entry): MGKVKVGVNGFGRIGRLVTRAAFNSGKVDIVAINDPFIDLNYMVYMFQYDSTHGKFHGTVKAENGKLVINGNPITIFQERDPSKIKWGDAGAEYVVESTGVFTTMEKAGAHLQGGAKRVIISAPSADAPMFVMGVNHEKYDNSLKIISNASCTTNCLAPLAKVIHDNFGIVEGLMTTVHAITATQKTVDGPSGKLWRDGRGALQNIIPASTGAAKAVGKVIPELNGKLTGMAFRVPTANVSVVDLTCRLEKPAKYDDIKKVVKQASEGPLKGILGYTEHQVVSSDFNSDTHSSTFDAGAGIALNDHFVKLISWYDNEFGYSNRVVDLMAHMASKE
# [24] = biological target: T5, Dual specificity protein phosphatase 6
smiles,measurement,setting,value
FC(F)(F)C1=Nc2cccc3cccc(c23)N1,IC50,[1],12.1 µM (active)
same,IC50,Beta-galactosidase,> 66.6 µM (inactive)
same,IC50,[2],102 µM (inactive)
same,CC50,[3],11.5 µM (active)
same,IC50,[4],56.6 µM (inactive)
same,IC50,[5],23.8 µM (inactive)
COc1cc(C=NNC(=O)c2ccccc2O)ccc1OCC(=O)Nc1ccccc1,IC50,[6],52.6 µM (active)
same,IC50,[7],2.41 µM (active)
O=S(=O)(Nc1nc2ccccc2nc1Nc1ccc(N2CCOCC2)cc1)c1cc(Cl)ccc1Cl,IC50,[8],> 100 µM (active)
same,IC50,[9],> 99 µM (inactive)
same,AC50,[10],4.38 µM (active)
same,AC50,INS1,5.91 µM (active)
COC(=O)c1ccccc1-c1c2ccc(=N)cc-2oc2cc(N)ccc12,IC50,[11],> 100 µM (inactive)
same,AC50,Paired box protein Pax-8,1.41 µM (active)
same,EC50,Insulin-degrading enzyme [12],> 54.7 µM (inactive)
same,AC50,[13],3.6 µM (active)
same,IC50,[14],9.91 µM (active)
same,EC50,HEK293 [15],0.045 µM (active)
same,CC50,[3],5.49 µM (active)
same,EC50,Insulin-degrading enzyme [16],> 54.7 µM (inactive)
same,AC50,ORF 73,< 0.015 µM (active)
same,AC50,HeLa,34 µM (active)
same,IC50,HEK293 [17],> 89.2 µM (inactive)
Cc1cc(C)c2nc3s/c(=C\c4ccc(-c5ccccc5C(=O)O)o4)c(=O)n3c2c1,IC50,[18],5.82 µM (active)
same,IC50,[19],0.68 µM (active)
same,IC50,[20],2.4 µM (active)
same,IC50,[21],15.6 µM (active)
same,IC50,[22],0.805 µM (active)
same,IC50,[23],87.1 µM (active)
same,IC50,[24],13.8 µM (active)
